The values that follow come from patent US10004701B2, “Methods and compositions for treating infection” (UNIVERSITY OF ROCHESTER, priority 2012, dated 2018).

Assay in all cases: AK assay 384-well format, Prestwick library screening
For test [1], the system named is S. aureus strain USA300-0114. The format is cell-based, Staphylococcus aureus. The following applies: 50 μM final drug concentration; for fold induction at 50 µM: Staphylococcus aureus, USA300, 3 h.
Test [2] concerns E. faecium. The format is cell-based, Enterococcus faecium. The following applies: 50 μM final drug concentration; for fold induction at 50 µM: Enterococcus faecium, 3 h.
The subject of test [3] is A. baumannii strain 98-37-09. In kind it is cell-based, Acinetobacter baumannii. The following applies: 50 μM final drug concentration; for fold induction at 50 µM: Acinetobacter baumannii, 983709, 3 h.
Test [4] relates to E. coli. In kind it is cell-based, Escherichia coli. Particulars: 50 μM final drug concentration; for fold induction at 50 µM: Escherichia coli, 3 h.
In test [5] the test system is E. cloacae. In kind it is cell-based, Enterobacter cloacae. Particulars: 50 μM final drug concentration; for fold induction at 50 µM: Enterobacter cloacae, 3 h.
The subject of test [6] is K. pneumoniae. The format is cell-based, Klebsiella pneumoniae. Particulars: 50 μM final drug concentration; for fold induction at 50 µM: Klebsiella pneumoniae, 3 h.
Test [7] relates to P. aeruginosa. The format is cell-based, Pseudomonas aeruginosa. The following applies: 50 μM final drug concentration; for fold induction at 50 µM: Pseudomonas aeruginosa, 3 h.
The mark [8] stands for this setting: planktonic S. aureus, positive cutoff 3-fold increase, read-out: AK-based Prestwick library screening result, S. aureus (fold increase in extracellular AK activity).
Where [9] appears, read: planktonic E. faecium, positive cutoff 3-fold increase, read-out: AK-based Prestwick library screening result, E. faecium (fold increase in extracellular AK activity).
Setting [10] is: planktonic A. baumannii, positive cutoff 3-fold increase, read-out: AK-based Prestwick library screening result, A. baumannii (fold increase in extracellular AK activity).
Where [11] appears, read: planktonic E. coli, positive cutoff 3-fold increase, read-out: AK-based Prestwick library screening result, E. coli (fold increase in extracellular AK activity).
The mark [12] stands for this setting: planktonic E. cloacae, positive cutoff 3-fold increase, read-out: AK-based Prestwick library screening result, E. cloacae (fold increase in extracellular AK activity).
Setting [13] is: planktonic K. pneumoniae, positive cutoff 3-fold increase, read-out: AK-based Prestwick library screening result, K. pneumoniae (fold increase in extracellular AK activity).
[14] abbreviates: planktonic P. aeruginosa, positive cutoff 3-fold increase, read-out: AK-based Prestwick library screening result, P. aeruginosa (fold increase in extracellular AK activity).
Setting [15] is: cutoff for positive-scoring molecules 3-fold increase, read-out: AK-based Prestwick Library Screening Results, S. aureus (fold increase in extracellular AK activity).
[16] abbreviates: cutoff for positive-scoring molecules 3-fold increase, read-out: AK-based Prestwick Library Screening Results, E. faecium (fold increase in extracellular AK activity).
Where [17] appears, read: cutoff for positive-scoring molecules 3-fold increase, read-out: AK-based Prestwick Library Screening Results, A. baumannii (fold increase in extracellular AK activity).
Where [18] appears, read: cutoff for positive-scoring molecules 3-fold increase, read-out: AK-based Prestwick Library Screening Results, E. coli (fold increase in extracellular AK activity).
The mark [19] stands for this setting: cutoff for positive-scoring molecules 3-fold increase, read-out: AK-based Prestwick Library Screening Results, E. cloacae (fold increase in extracellular AK activity).
Setting [20] is: cutoff for positive-scoring molecules 3-fold increase, read-out: AK-based Prestwick Library Screening Results, K. pneumoniae (fold increase in extracellular AK activity).
The mark [21] stands for this setting: cutoff for positive-scoring molecules 3-fold increase, read-out: AK-based Prestwick Library Screening Results, P. aeruginosa (fold increase in extracellular AK activity).
Where [22] appears, read: planktonic S. aureus, 384-well, cutoff for positive-scoring molecules 3-fold increase, read-out: AK-based Prestwick Library Screening Results: S. aureus (increase in extracellular AK activity).
Setting [23] is: planktonic E. faecium, 384-well, cutoff for positive-scoring molecules 3-fold increase, read-out: AK-based Prestwick Library Screening Results: E. faecium (increase in extracellular AK activity).
Where [24] appears, read: planktonic A. baumannii, 384-well, cutoff for positive-scoring molecules 3-fold increase, read-out: AK-based Prestwick Library Screening Results: A. baumannii (increase in extracellular AK activity).
The mark [25] stands for this setting: planktonic E. coli, 384-well, cutoff for positive-scoring molecules 3-fold increase, read-out: AK-based Prestwick Library Screening Results: E. coli (increase in extracellular AK activity).
Setting [26] is: planktonic E. cloacae, 384-well, cutoff for positive-scoring molecules 3-fold increase, read-out: AK-based Prestwick Library Screening Results: E. cloacae (increase in extracellular AK activity).
Where [27] appears, read: planktonic K. pneumoniae, 384-well, cutoff for positive-scoring molecules 3-fold increase, read-out: AK-based Prestwick Library Screening Results: K. pneumoniae (increase in extracellular AK activity).
Setting [28] is: planktonic P. aeruginosa, 384-well, cutoff for positive-scoring molecules 3-fold increase, read-out: AK-based Prestwick Library Screening Results: P. aeruginosa (increase in extracellular AK activity).

Where a name gives a salt, the structure may show the parent alone. Read-outs that look alike come from different tables or passages of the source.

As to `COc1ccc(C[C@H]2NC[C@H](O)[C@H]2OC(C)=O)cc1` [Anisomycin], the “AK-based Prestwick Library Screening Results, S. aureus (increase in extracellular AK activity)” value in test [1] (planktonic S. aureus, […]) is 0.7. The “AK-based Prestwick Library Screening Results, E. faecium (increase in extracellular AK activity)” value in test [2] (planktonic E. faecium, […]) amounted to 1.0. Further, in test [3] (planktonic A. baumannii, […]), the “AK-based Prestwick Library Screening Results, A. baumannii (increase in extracellular AK activity)” value came out at 0.7. For the same molecule, in test [4] (planktonic E. coli, […]), the “AK-based Prestwick Library Screening Results, E. coli (increase in extracellular AK activity)” value is 0.7. Also, the “AK-based Prestwick Library Screening Results, E. cloacae (increase in extracellular AK activity)” value in test [5] (planktonic E. cloacae, […]) came out at 0.7. Also, the “AK-based Prestwick Library Screening Results, K. pneumoniae (increase in extracellular AK activity)” value in test [6] (planktonic K. pneumoniae, […]) is on record as 0.5. For the same molecule, the “AK-based Prestwick Library Screening Results, P. aeruginosa (increase in extracellular AK activity)” value in test [7] (planktonic P. aeruginosa, […]) stood at 0.7.
`CN(C)CCC=C1c2ccccc2CCc2ccccc21.Cl` [Amitryptiline hydrochloride]: the “AK-based Prestwick Library Screening Results: S. aureus (increase in extracellular AK activity)” value in test [1] (planktonic S. aureus, 384-well, […]) is on record as 1.4. In addition, the “AK-based Prestwick Library Screening Results: E. faecium (increase in extracellular AK activity)” value in test [2] (planktonic E. faecium, 384-well, […]) was determined as 1.0. Moreover, in test [3] (planktonic A. baumannii, 384-well, […]), the “AK-based Prestwick Library Screening Results: A. baumannii (increase in extracellular AK activity)” value is on record as 1.3. For the same molecule, in test [4] (planktonic E. coli, 384-well, […]), the “AK-based Prestwick Library Screening Results: E. coli (increase in extracellular AK activity)” value was 1.2. In test [5] (planktonic E. cloacae, 384-well, […]), the “AK-based Prestwick Library Screening Results: E. cloacae (increase in extracellular AK activity)” value came to 1.8. Also, the “AK-based Prestwick Library Screening Results: K. pneumoniae (increase in extracellular AK activity)” value in test [6] (planktonic K. pneumoniae, 384-well, […]) is listed as 1.1. In addition, in test [7] (planktonic P. aeruginosa, 384-well, […]), the “AK-based Prestwick Library Screening Results: P. aeruginosa (increase in extracellular AK activity)” value was 1.0.
For `Cc1nccn1CC1CCc2c(c3ccccc3n2C)C1=O` (centres unmarked) [Ondansetron Hydrochloride], the fold induction at 50 µM in test [1] (setting [8]) amounted to 0.6; in test [2] (setting [9]), 1.1; in test [3] (setting [10]) it was 0.7; in test [4] (setting [11]), 0.7; in test [5] (setting [12]), 0.8; in test [6] (setting [13]), 0.6. For the same molecule, the fold induction at 50 µM in test [7] (setting [14]) stood at 0.7.
Take `CCOC(=O)c1ccc(N)cc1` [Benzocaine]: the fold induction at 50 µM in test [1] (setting [15]) is 1.2; in test [2] (setting [16]), 1; in test [3] (setting [17]), 1.2; in test [4] (setting [18]), 1.1; in test [5] (setting [19]), 1.6; in test [6] (setting [20]) it was 0.9. Further, the fold induction at 50 µM in test [7] (setting [21]) worked out at 1.1.
`Cc1[nH]c(=O)c(C#N)cc1-c1ccncc1` [Milrinone]: the fold induction at 50 µM was 0.7 in test [1] (setting [8]); 0.9 in test [2] (setting [9]); 0.8 in test [3] (setting [10]); 0.8 in test [4] (setting [11]); 0.9 in test [5] (setting [12]); 0.8 in test [6] (setting [13]). Also, the fold induction at 50 µM in test [7] (setting [14]) was determined as 0.9.
On to `CC(C)NCC(O)c1ccc2ccccc2c1` (centres unmarked) [Pronethalol hydrochloride], for which the fold induction at 50 µM in test [1] (setting [15]) stood at 0.6; in test [2] (setting [16]), 0.9; in test [3] (setting [17]), 0.6; in test [4] (setting [18]), 0.7; in test [5] (setting [19]), 0.9; in test [6] (setting [20]) it was 0.6. Further, in test [7] (setting [21]), the fold induction at 50 µM was determined as 0.6.
Take `CNCCCC1c2ccccc2C=Cc2ccccc21` [Protriptyline hydrochloride]: the fold induction at 50 µM came to 2.8 in test [1] (setting [15]); 1 in test [2] (setting [16]); 1.1 in test [3] (setting [17]); 1.2 in test [4] (setting [18]); 1.4 in test [5] (setting [19]); 1.1 in test [6] (setting [20]). Further, the fold induction at 50 µM in test [7] (setting [21]) stood at 1.2.
As to `CN1CCc2cc3c(cc2[C@H]1[C@@H]1OC(=O)c2c1ccc1c2OCO1)OCO3` [Bicuculline (+)], in test [1] (planktonic S. aureus, […]), the “AK-based Prestwick Library Screening Results, S. aureus (increase in extracellular AK activity)” value is on record as 0.6. Also, the “AK-based Prestwick Library Screening Results, E. faecium (increase in extracellular AK activity)” value in test [2] (planktonic E. faecium, […]) was determined as 0.9. Moreover, in test [3] (planktonic A. baumannii, […]), the “AK-based Prestwick Library Screening Results, A. baumannii (increase in extracellular AK activity)” value is recorded as 0.8. Besides, in test [4] (planktonic E. coli, […]), the “AK-based Prestwick Library Screening Results, E. coli (increase in extracellular AK activity)” value was determined as 0.8. The “AK-based Prestwick Library Screening Results, E. cloacae (increase in extracellular AK activity)” value in test [5] (planktonic E. cloacae, […]) was determined as 0.9. In addition, the “AK-based Prestwick Library Screening Results, K. pneumoniae (increase in extracellular AK activity)” value in test [6] (planktonic K. pneumoniae, […]) was found to be 0.8. In test [7] (planktonic P. aeruginosa, […]), the “AK-based Prestwick Library Screening Results, P. aeruginosa (increase in extracellular AK activity)” value came to 0.9.
`CO[C@]12C[C@@H](COC(=O)c3cncc(Br)c3)CN(C)[C@@H]1Cc1cn(C)c3cccc2c13` [Nicergoline]: the fold induction at 50 µM turned out to be 1.4 in test [1] (setting [22]); 1 in test [2] (setting [23]); 1.4 in test [3] (setting [24]); 1.3 in test [4] (setting [25]); 1.2 in test [5] (setting [26]); 1 in test [6] (setting [27]). Further, the fold induction at 50 µM in test [7] (setting [28]) was determined as 1.2.
With `O=c1n(CCCN2CCN(c3cccc(Cl)c3)CC2)nc2ccccn12` [Trazodone hydrochloride], the fold induction at 50 µM in test [1] (setting [22]) came to 0.9; in test [2] (setting [23]), 1; in test [3] (setting [24]), 1; in test [4] (setting [25]), 0.9; in test [5] (setting [26]), 1.3; in test [6] (setting [27]), 1. In addition, in test [7] (setting [28]), the fold induction at 50 µM amounted to 1.2.
With `NC(=O)c1ncn([C@@H]2O[C@H](CO)[C@@H](O)[C@H]2O)n1` [Ribavirin], the fold induction at 50 µM in test [1] (setting [8]) amounted to 0.7; in test [2] (setting [9]), 0.9; in test [3] (setting [10]) it was 0.9; in test [4] (setting [11]), 0.8; in test [5] (setting [12]), 1.2; in test [6] (setting [13]), 0.7. Besides, in test [7] (setting [14]), the fold induction at 50 µM is 1.1.
